# Measured values as given in US7482318B2, “Protein kinase domain of the large subunit of herpes simplex type 2 ribonucleotide reductase (icp 10pk) has anti-apoptotic activity” (priority 2000, dated 2009).
# Like-named read-outs stand apart in the source and are kept apart here.
# What was measured:
# [1] = test system: HEK293 cells; assay: TUNEL assay of apoptosis inducers in HEK293 cells; format: cell-based, human; details: 24 hours with 250 nM STS or 300 nM D-Mann, ±SEM, three experiments
# Experimental: (§1) Vero (African green monkey kidney cells) were obtained from ATCC and grown in Minimum Essential Medium (MEM) with 10% fetal bovine serum (FBS) and antibiotics. HEK293 (human embryonic kidney) cells were grown in Dulbecco's Modified Eagle's Medium (DMEM) with 10% FBS, 1 mM sodium pyruvate, 0.1 mM non-essential amino acids, and antibiotics. The cell line JHLA1 was established from HEK293 cells by transfection with an ICP10 expression vector and clone selection with G418, and the cell line JHL15 was similarly constructed using a vector which expresses the transmembrane deleted mutant of ICP10, p139™, which is PK negative, as described (Smith et al. 1994, Virology, 200:598-612).
# (§2) Apoptosis was induced in HEI293 and JHLA1 cells using staurosporine (STS; Calbiochem, San Diego, Calif.) and D-manritol (D-Mann; Sigma, St. Louis, Mo.). […]
# (§3) In situ analysis of apoptosis was performed using In Situ Cell Death Detection Kit (Roche Molecular Biochemicals, Indianapolis, Ind.) according to the manufacturer's instructions. […] Coverslips were mounted in PBS/glycerol, and cells were analyzed by fluorescence microscopy. […] Coverslips were mounted in PBS/glycerol and analyzed by light microscopy. Apoptotic cells (characterized by a dark precipitate) and non-apoptotic cells (diffuse, light staining) were counted in at least five randomly chose microscopic fields (containing at least 250 cells). […]
# [2] = test system: JHLA1 cells; assay: TUNEL assay of apoptosis inducers in JHLA1 cells (express ICP10); format: cell-based, human; details: JHLA1 cells (printed JHLA15); 24 hours with 250 nM STS or 300 nM D-Mann; ±SEM
# Experimental: as §1, §2, §3
# [3] = test system: JHL15 cells; assay: TUNEL assay of apoptosis inducers in JHL15 cells (express PK negative p139TM); format: cell-based, human; details: JHL15 cells (printed RHL15 for STS); 24 hours with 250 nM STS or 300 nM D-Mann; ±SEM
# Experimental: as §1, §2, §3
# [4] = test system: chromosomal DNA; assay: DNA fragmentation assay (agarose gel DNA ladder); format: cell-based, human; details: 24 hours post-treatment
# Experimental: (§4) Apoptosis was induced in HEI293 and JHLA1 cells using staurosporine (STS; Calbiochem, San Diego, Calif.) and D-manritol (D-Mann; Sigma, St. Louis, Mo.). Cells were plated in 6-well plates on glass coverslips or in flasks and allowed to grow for 24 hours at 37° C. in DMEM with 10% FBS, 1 mM sodium pyruvate, 0.1 mM non-essential amino acids, and antibiotics. At 24 hours after plating, media was removed by aspiration, and appropriate dilutions of apoptotic inducers (STS 250 nM, D-Mann 300 mM) were added to the cells for various times indicated in the text. All dilutions were made in cell growth media described above containing 1% FBS. At the indicated times after treatment, cells were processed for TUNEL or harvested for DNA extraction or Western blot assay.
# HEK293, JHLA1 and JHL15 cells treated or not treated with apoptotic inducers were collected by gentle scraping at 24 hours post-treatment/infection. DNA was extracted using Puregene DNA Isolation Kit (Gentra Systems, Minneapolis, Minn.) according to the manufacturer's instructions. After spectrophotometrical quantitation, 5-10 micrograms of DNA per samples was separated on a 1.5% agarose gel stained with 0.1 microgram/ml ethidium bromide. Fragmented DNA was visualized by exposure to UV light and photographed using a Polaroid MP-4 land camera.
# To determine whether ICP10PK blocks DNA fragmentation induced by STS and D-Mann, treated cells were analyzed using a DNA fragmentation assay which detects degradation of chromosomal DNA into oligonucleosomal fragments.
# [5] = test system: primary hippocampal cultures; format: cell-based, rat
# Experimental: Briefly, minced fetal hippocampi were incubated with 0.25% trypsin for 30 minutes at 36° C. followed by dissociation of neurons in MEM supplemented with 10% FBS, 10% horse serum, 2 mM glutamine, and 20 microgram/ml DNase II, using a sterile Pasteur pipette. Neurons were plated at approximately 750,000 cells per 35 mm dish on glass coverslips pre-coated with poly-L-lysine and incubated at 36° C., 10% CO2. At 24 hours, media was replaced with MEM supplemented with 10% horse serum and 2 mM glutamine, and the cultures were returned to a 36 degrees C., 10% CO2 incubator.
# In situ analysis of apoptosis was performed using In Situ Cell Death Detection Kit (Roche Molecular Biochemicals, Indianapolis, Ind.) according to the manufacturer's instructions. Briefly, infected/treated or non-infected/non-treated cells were fixed with 4% paraformaldehyde (PFA) in PBS (pH=7.4) for 30 minutes at room temperature followed by permiabilization of cells in 0.1% Triton X-100 (in 0.1% sodium citrate) for 2 minutes on ice. DNA breaks were labeled by addition of terminal deoxynucleotidyl transferase (TdT) and nucleotide mixture (containing dUTP-fluorescein conjugated) and incubation for 60 minutes at 37° C. Coverslips were mounted in PBS/glycerol, and cells were analyzed by fluorescence microscopy. After extensive washes in PBS, cells were incubated for 30 minutes at 37° C. with an anti-fluorescein antibody conjugated with alkaline phosphatase (AP). Chromogenic reaction was carried out by adding AP substrate solution (NBT/BCIP in 0.1 M Tris-HCl pH=9.5, 0.05 M MCl2, 0.1M NaCl, and 1 mM levamisole) and incubation for 10 minutes at room temperature. Coverslips were mounted in PBS/glycerol and analyzed by light microscopy. Apoptotic cells (characterized by a dark precipitate) and non-apoptotic cells (diffuse, light staining) were counted in at least five randomly chose microscopic fields (containing at least 250 cells). The percentage of mock-infected neurons undergoing apoptosis (between 4 and 5%) was subtracted from each average.
# Cells were infected with 10 PFU/cell of HSV-2 or ICP10deltaPK and apoptosis was determined by TUNEL at 16 and 24 hours p.i. A total of 200-300 cells were counted in five randomly chosen microscopic fields and the mean percentage of TUNEL-positive cells was determined.
# [6] = test system: procaspase-3 (caspase-3p32); assay: Western blot of inactive procaspase-3 (caspase-3p32), densitometric scanning; format: cell-based, human
# Experimental: as §4
# (§5) Cells were collected by gentle scraping and centrifuged at 2,500 rpm for 5 minutes at 4° C. The dry pellet was stored at −80° C. until use. Cells were lysed with RIPA buffer (30 mM Tris-Hcl pH=7.4, […], 1% Nonidet P-40, 0/1% SDS, 0.5% sodium deoxycholate, 1 mM EDTA, 1 mM DTT, 2 mM MgCl2, 0.5 mM PMSF) supplemented with phosphatase and protease inhibitor cocktails (Sigma, St. Louis, Mo.) and sonicated for 1 minute at 25% output power using the Sonicator/Ultrasonic Processor (Misonix, Inc., Farmingdale, N.Y.). Total protein was determined by BCA (Pierce, Rockford, Ill.) and proteins were resolved by SDS-PAGE. Transfer of separated proteins to Schlecher and Schuell nitrocellulose membranes was performed overnight using an electroblotting apparatus. Non-specific binding was blocked by incubating blots for 1 hour at 37° C. in TN-T buffer (0.01 M Tris-Hcl pH=7.4, 0.15 M NaCl, 0.05% Tween 20) containing 1% bovine serum albumin (BSA). After washing with TN-T buffer, the blots were incubated for 2 hours at room temperature with the appropriate antibodies diluted in TN-T buffer containing 0.1% BSA. After three washes with TN-T buffer, the blots were incubated with Protein A-Peroxidase for 1 hour at room temperature. […]
# [7] = test system: caspase-3p20; assay: Immunohistochemistry for activated caspase-3 cleavage product (caspase-3p20) in HEK293, JHL15, JHLA1 cells; format: cell-based, human; details: STS-treated, ±SEM
# Source text: FIG. 3B is a graph depicting inhibition of caspase activation by ICP10PK. HEK93, JHL15, and JHLA1 cells treated with STS (as described in FIG. 3A) were stained with caspase3p20 antibody (specific for the activated caspase-3 which is the large fragment of the pro-enzyme), and cells in five randomly chosen microscopic fields were counted. Results are expressed as mean percentage of positive cells±SEM (*=p<0.01 vs. HEK294; +=p<0.01 vs. JHL15 by Student test).
# Previous reports have shown that STS-induced cell death is a caspase-dependent process (Jacobson et al., 1996, J. Cell. Biol., 133:1041-1051). […] To determine whether ICP10PK inhibits cleavage of pro-caspase-3, a central determinant of many apoptotic processes, Western blot analysis was performed on cell lysates obtained from STS-treated cells. […] The densitometric units were equal to 0.7 for both STS-treated HEK293 and JHL15 cells and 1.0 and 1.1 for DMSO-treated HEK293 and JHL15 cells, respectively). The levels of caspase-3p32 were similar in STS-treated and untreated JHLA1 cells (FIG. 3A, lanes 5 and 6, respectively). In this case, the densitometric units were equal to 1.2 for both treatments.
# [8] = test system: PARP; assay: Western blot of PARP cleavage; format: cell-based, human; details: STS-treated
# Experimental: as §5, with “(BSA).” for “(BSA). After washing with TN-T buffer, the blots were incubated for 2 hours at room temperature with the appropriate antibodies diluted in TN-T buffer containing 0.1% BSA. After three washes with TN-T buffer, the blots were incubated with Protein A-Peroxidase for 1 hour at room temperature.”
# To determine whether ICP10PK blocks PARP cleavage by caspase-3, a hallmark of caspase-3 dependent apoptosis, Western blot analysis using PARP antibody was performed on STS-treated HEK293, JHL15, and JHLA1 cells. A 116 kDa band consistent with the uncleaved PARP was detected in mock- and STS-treated cells.
# [9] = test system: P-MAPK1/2; assay: Immunoblot of P-MAPK1/2 (MAPK activation) in hippocampal neurons; format: cell-based, rat; details: 20 micromoles U0126
# Experimental: Cells were lysed with RIPA buffer (30 mM Tris-Hcl pH=7.4, 0.15 mM NaCl, 1% Nonidet P-40, 0/1% SDS, 0.5% sodium deoxycholate, 1 mM EDTA, 1 mM DTT, 2 mM MgCl2, 0.5 mM PMSF) supplemented with phosphatase and protease inhibitor cocktails (Sigma, St. Louis, Mo.) and sonicated for 1 minute at 25% output power using the Sonicator/Ultrasonic Processor (Misonix, Inc., Farmingdale, N.Y.). Total protein was determined by BCA (Pierce, Rockford, Ill.) and proteins were resolved by SDS-PAGE. Transfer of separated proteins to Schlecher and Schuell nitrocellulose membranes was performed overnight using an electroblotting apparatus. Non-specific binding was blocked by incubating blots for 1 hour at 37° C. in TN-T buffer (0.01 M Tris-Hcl pH=7.4, 0.15 M NaCl, 0.05% Tween 20) containing 1% bovine serum albumin (BSA). After washing with TN-T buffer, the blots were incubated for 2 hours at room temperature with the appropriate antibodies diluted in TN-T buffer containing 0.1% BSA. After three washes with TN-T buffer, the blots were incubated with Protein A-Peroxidase for 1 hour at room temperature. […]
# Culture of hippocampal neurons were infected with HSV-2 or ICP10deltaPK at 10 PFU/cell and analyzed for MAPK activation by immunoblotting with antibodies specific for the unphosphorylated (MAPK) and phosphorylated (activated) MAPK species (P-MAPK1/2). […]
structure (smiles),measurement,setting,value
"OC[C@@H](O)[C@@H](O)[C@H](O)[C@H](O)CO [D-Mann, D-mannitol]",percentage of apoptotic (TUNEL-positive) cells,[1],79±7.4%
same,percentage of apoptotic (TUNEL-positive) cells,[2],13±8%
same,percentage of apoptotic (TUNEL-positive) cells,[3],58±7%
same,DNA fragmentation (DNA ladder pattern),[4]; HEK293 cells,exhibited a DNA ladder pattern characteristic of apoptosis
same,DNA fragmentation (DNA ladder pattern),[4]; JHLA1 cells,did not exhibit DNA fragmentation
O=c1cc(N2CCOCC2)oc2c(-c3ccccc3)cccc12 [LY294002],percentage of TUNEL-positive cells,"[5]; HSV-2 infected cultures, 100 micromolar LY294002",24.8±2.3
same,percentage of TUNEL-positive cells,"[5]; mock-infected cultures, 100 micromolar LY294002 (non-treated 5±3)",72±4.5
"CN[C@@H]1C[C@H]2O[C@@](C)([C@@H]1OC)n1c3ccccc3c3c4c(c5c6ccccc6n2c5c31)C(=O)NC4 [STS, staurosporine]",percentage of apoptotic (TUNEL-positive) cells,[1],71±12.4%
same,percentage of apoptotic (TUNEL-positive) cells,[2],5.8 ± 2.1%
same,percentage of apoptotic (TUNEL-positive) cells,[3],79±4.9%
same,levels of caspase-3p32,"[6]; HEK293 cells, STS 250 nM (DMSO control 1.0)",0.7 densitometric units
same,levels of caspase-3p32,"[6]; JHL15 cells, STS 250 nM (DMSO control 1.1)",0.7 densitometric units
same,levels of caspase-3p32,"[6]; JHLA1 cells, STS 250 nM (untreated 1.2)",1.2 densitometric units
same,DNA fragmentation (DNA ladder pattern),[4]; HEK293 cells,exhibited a DNA ladder pattern characteristic of apoptosis
same,DNA fragmentation (DNA ladder pattern),[4]; JHLA1 cells,did not exhibit DNA fragmentation
same,mean percentage of cells positive for caspase-3p20,[7]; HEK293 cells,40.5±0.9%
same,mean percentage of cells positive for caspase-3p20,[7]; JHL15 cells,36.4±7.6%
same,mean percentage of cells positive for caspase-3p20,[7]; JHLA1 cells,9.3±0.1%
same,85 kDa PARP cleavage product,[8]; HEK293 cells,detected
same,85 kDa PARP cleavage product,[8]; JHL15 cells,detected
N#CC(=C(/N)Sc1ccccc1N)/C(C#N)=C(\N)Sc1ccccc1N [U0126],percentage of TUNEL-positive (apoptotic) cells,"[5]; HSV-2 infected cultures, 10 micromoles U0126",20±1.6%
same,percentage of TUNEL-positive (apoptotic) cells,"[5]; HSV-2 infected cultures, 20 micromoles U0126",39.3±2.8%
same,P-MAPK1/2 levels vs untreated HSV-2 infected cells,[9],significantly lower
